How the values were obtained:
Assay type in all cases: cell-based
TNF-α = assay: Whole bovine blood assay, LPS-induced TNF-α; conditions: fresh whole bovine blood, LPS stimulant; top drug concentration 250 μM
How it was run: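 Fresh heparinized bovine whole blood was preincubated with compound 4 h at 37 °C, then stimulated with LPS (final 1 μg/mL) for 18 h at 37 °C. Plasma TNF-α was quantified by MSD U-Plex chemiluminescent immunoassay, normalized to total protein (BCA), and IC50 taken for LPS-induced TNF-α inhibition.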

IL-1β = assay: Whole bovine blood assay, LPS-induced IL-1β (inhibition / overstimulation); conditions: drug concentration giving overstimulation (OS) of LPS-induced IL-1β, top concentration 250 μM
How it was run: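 Fresh heparinized bovine whole blood was preincubated with compound at varying concentrations for 4 h at 37 °C, then stimulated with 1 μg/mL LPS for 18 h. Plasma IL-1β was measured by MSD chemiluminescent immunoassay and normalized to total protein. Values cover inhibition and concentration-dependent overstimulation.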

IL-6 = assay: Whole bovine blood assay, LPS-induced IL-6; conditions: fresh whole bovine blood, LPS stimulant; top drug concentration 250 μM

With CCCNC[C@]1(O)[C@H](C)O[C@@H](O[C@H]2[C@H](C)[C@@H](O[C@@H]3O[C@H](C)C[C@H](N(Cc4ccccc4)S(=O)(=O)c4nccn4C)[C@H]3O)[C@](C)(O)C[C@@H](C)CN[C@H](C)[C@@H](O)[C@](C)(O)[C@@H](CC)OC(=O)[C@@H]2C)C[C@@]1(C)OC [Example B-143] the IC50 (TNF-α) was 7 µM, the minimal effective concentration (IL-1β) was 2 µM and the IC50 (IL-6) was 8 µM.

In the case of CC[C@H]1OC(=O)[C@H](C)[C@@H](O[C@H]2C[C@@](C)(OC)[C@](O)(CN3CCCCC3)[C@H](C)O2)[C@H](C)[C@@H](O[C@@H]2O[C@H](C)C[C@H](N(C)S(=O)(=O)c3ccccc3)[C@H]2Oc2ccc(Cl)cn2)[C@](C)(O)C[C@@H](C)CN[C@H](C)[C@@H](O)[C@]1(C)O [Example C-48], the IC50 (TNF-α) is reported as 4 µM, the minimal effective concentration (IL-1β) is reported as 6 µM and the IC50 (IL-6) is reported as 6 µM.

CCCNC[C@]1(O)[C@H](C)O[C@@H](O[C@H]2[C@H](C)[C@@H](O[C@@H]3O[C@H](C)C[C@H](N(C)S(=O)(=O)c4nccn4C)[C@H]3Oc3cccc([S+](C)[O-])c3)[C@](C)(O)C[C@@H](C)CN[C@H](C)[C@@H](O)[C@](C)(O)[C@@H](CC)OC(=O)[C@@H]2C)C[C@@]1(C)OC (stereo partly drawn) [Example B-139] showed an IC50 (TNF-α) of 40 µM, a minimal effective concentration (IL-1β) of 40 µM and an IC50 (IL-6) of 73 µM.

Work on CCCNC[C@]1(O)[C@H](C)O[C@@H](O[C@H]2[C@H](C)[C@@H](O[C@@H]3O[C@H](C)C[C@H](N(C)S(=O)(=O)c4ccc(Cl)cc4)[C@H]3Oc3ccc(F)cc3)[C@](C)(O)C[C@@H](C)CN[C@H](C)[C@@H](O)[C@](C)(O)[C@@H](CC)OC(=O)[C@@H]2C)C[C@@]1(C)OC [Example B-106] yielded an IC50 (TNF-α) of 7 µM, a minimal effective concentration (IL-1β) of 3 µM and an IC50 (IL-6) of 9 µM.

In the case of CCCNC[C@]1(O)[C@H](C)O[C@@H](O[C@H]2[C@H](C)[C@@H](O[C@@H]3O[C@H](C)C[C@H](N(C)S(=O)(=O)c4nccn4C)[C@H]3Oc3cccc(CO)c3)[C@](C)(O)C[C@@H](C)CN[C@H](C)[C@@H](O)[C@](C)(O)[C@@H](CC)OC(=O)[C@@H]2C)C[C@@]1(C)OC [Example B-134], the IC50 (TNF-α) is reported as 17 µM, the minimal effective concentration (IL-1β) is reported as 40 µM and the IC50 (IL-6) is reported as 83 µM.

Compound CC[C@H]1OC(=O)[C@H](C)[C@@H](O[C@H]2C[C@@](C)(OC)[C@](O)(CNC)[C@H](C)O2)[C@H](C)[C@@H](O[C@@H]2O[C@H](C)C[C@H](N(C)S(=O)(=O)c3ccc(Cl)cc3)[C@H]2O)[C@](C)(O)C[C@@H](C)CN[C@H](C)[C@@H](O)[C@]1(C)O [Example B-38] has an IC50 (TNF-α) of 32 µM, a minimal effective concentration (IL-1β) of 5 µM and an IC50 (IL-6) of 22 µM.

CCCNC[C@]1(O)[C@H](C)O[C@@H](O[C@H]2[C@H](C)[C@@H](O[C@@H]3O[C@H](C)C[C@H](N(Cc4ccccc4)S(=O)(=O)c4ccccc4)[C@H]3O)[C@](C)(O)C[C@@H](C)CN[C@H](C)[C@@H](O)[C@](C)(O)[C@@H](CC)OC(=O)[C@@H]2C)C[C@@]1(C)OC [Example B-145] gave an IC50 (TNF-α) of 8 µM, a minimal effective concentration (IL-1β) of 2 µM and an IC50 (IL-6) of 6 µM.

CC[C@H]1OC(=O)[C@H](C)[C@@H](O)[C@H](C)[C@@H](O[C@@H]2O[C@H](C)C[C@H](N(C)S(=O)(=O)c3cnc4n3CCC4)[C@H]2Oc2ccc(F)cc2)[C@](C)(O)C[C@@H](C)CN[C@H](C)[C@@H](O)[C@]1(C)O [Example A-28] gave an IC50 (TNF-α) of over 250 µM, a minimal effective concentration (IL-1β) of 81 µM and an IC50 (IL-6) of 120 µM.

CC[C@H]1OC(=O)[C@H](C)[C@@H](O[C@H]2C[C@@](C)(OC)[C@](O)(CNCCN(C)C)[C@H](C)O2)[C@H](C)[C@@H](O[C@@H]2O[C@H](C)C[C@H](N(C)S(=O)(=O)c3ccc(Cl)cc3)[C@H]2O)[C@](C)(O)C[C@@H](C)CN[C@H](C)[C@@H](O)[C@]1(C)O [Example B-35] showed an IC50 (TNF-α) of over 250 µM, a minimal effective concentration (IL-1β) of 16 µM and an IC50 (IL-6) of 54 µM.

CC[C@H]1OC(=O)[C@H](C)[C@@H](O[C@H]2C[C@@](C)(OC)[C@](O)(CN3CCS(=O)(=O)CC3)[C@H](C)O2)[C@H](C)[C@@H](O[C@@H]2O[C@H](C)C[C@H](N(C)S(=O)(=O)Nc3ccc(C(F)(F)F)cc3)[C@H]2O)[C@](C)(O)C[C@@H](C)CN[C@H](C)[C@@H](O)[C@]1(C)O [Example C-13] was tested, and the IC50 (TNF-α) was over 250 µM, the minimal effective concentration (IL-1β) was 6 µM and the IC50 (IL-6) was over 250 µM.

Work on CCCNC[C@]1(O)[C@H](C)O[C@@H](O[C@H]2[C@H](C)[C@@H](O[C@@H]3O[C@H](C)C[C@H](N(C)S(=O)(=O)N4Cc5ccccc5C4)[C@H]3O)[C@](C)(O)C[C@@H](C)CN[C@H](C)[C@@H](O)[C@](C)(O)[C@@H](CC)OC(=O)[C@@H]2C)C[C@@]1(C)OC [Example B-45] yielded an IC50 (TNF-α) of 16 µM, a minimal effective concentration (IL-1β) of 3 µM and an IC50 (IL-6) of 8 µM.

In the case of CCCNC[C@]1(O)[C@H](C)O[C@@H](O[C@H]2[C@H](C)[C@@H](O[C@@H]3O[C@H](C)C[C@H](N(C)S(=O)(=O)Nc4ccc(F)cc4)[C@H]3O)[C@](C)(O)C[C@@H](C)CN[C@H](C)[C@@H](O)[C@](C)(O)[C@@H](CC)OC(=O)[C@@H]2C)C[C@@]1(C)OC [Example B-53], the IC50 (TNF-α) is reported as 85 µM, the minimal effective concentration (IL-1β) is reported as 16 µM and the IC50 (IL-6) is reported as 26 µM.

CCCNC[C@]1(O)[C@H](C)O[C@@H](O[C@H]2[C@H](C)[C@@H](O[C@@H]3O[C@H](C)C[C@H](N(C)S(=O)(=O)c4ccccc4)[C@H]3Oc3cccc([S+](C)[O-])c3)[C@](C)(O)C[C@@H](C)CN[C@H](C)[C@@H](O)[C@](C)(O)[C@@H](CC)OC(=O)[C@@H]2C)C[C@@]1(C)OC (stereo partly drawn) [Example B-138] was tested, and the IC50 (TNF-α) was 26 µM, the minimal effective concentration (IL-1β) was 40 µM and the IC50 (IL-6) was 70 µM.

In the case of CC[C@H]1OC(=O)[C@H](C)[C@@H](O)[C@H](C)[C@@H](O[C@@H]2O[C@H](C)C[C@H](N(C)S(=O)(=O)c3ccc(F)cc3)[C@H]2Oc2ccc(F)cc2)[C@](C)(O)C[C@@H](C)CN[C@H](C)[C@@H](O)[C@]1(C)O [Example A-25], the IC50 (TNF-α) is reported as 75 µM, the minimal effective concentration (IL-1β) is reported as 16 µM and the IC50 (IL-6) is reported as 28 µM.

Work on CC[C@H]1OC(=O)[C@H](C)[C@@H](O[C@H]2C[C@@](C)(OC)[C@](O)(CN3CCN(S(C)(=O)=O)CC3)[C@H](C)O2)[C@H](C)[C@@H](O[C@@H]2O[C@H](C)C[C@H](N(C)S(=O)(=O)Nc3ccc(C(F)(F)F)cc3)[C@H]2O)[C@](C)(O)C[C@@H](C)CN[C@H](C)[C@@H](O)[C@]1(C)O [Example C-15] yielded an IC50 (TNF-α) of 10 µM, a minimal effective concentration (IL-1β) of 16 µM and an IC50 (IL-6) of 48 µM.

CC[C@H]1OC(=O)[C@H](C)[C@@H](O)[C@H](C)[C@@H](O[C@@H]2O[C@H](C)C[C@H](N(C)S(=O)(=O)c3nccn3C)[C@H]2Oc2ccc(F)cc2)[C@](C)(O)C[C@@H](C)CN[C@H](C)[C@@H](O)[C@]1(C)O [Example A-27] gave an IC50 (TNF-α) of 141 µM, a minimal effective concentration (IL-1β) of 100 µM and an IC50 (IL-6) of 66 µM.

Compound CCCNC[C@]1(O)[C@H](C)O[C@@H](O[C@H]2[C@H](C)[C@@H](O[C@@H]3O[C@H](C)C[C@H](N(C)S(=O)(=O)NC4CCCCC4)[C@H]3O)[C@](C)(O)C[C@@H](C)CN[C@H](C)[C@@H](O)[C@](C)(O)[C@@H](CC)OC(=O)[C@@H]2C)C[C@@]1(C)OC [Example B-56] has an IC50 (TNF-α) of 86 µM, a minimal effective concentration (IL-1β) of 16 µM and an IC50 (IL-6) of 26 µM.

In the case of CCCNC[C@]1(O)[C@H](C)O[C@@H](O[C@H]2[C@H](C)[C@@H](O[C@@H]3O[C@H](C)C[C@H](N(C)S(=O)(=O)N4CCCCC4)[C@H]3O)[C@](C)(O)C[C@@H](C)CN[C@H](C)[C@@H](O)[C@](C)(O)[C@@H](CC)OC(=O)[C@@H]2C)C[C@@]1(C)OC [Example B-47], the IC50 (TNF-α) is reported as 13 µM, the minimal effective concentration (IL-1β) is reported as 40 µM and the IC50 (IL-6) is reported as 24 µM.

— US20250236616A1, “IMMUNOMODULATING AZALIDES” (Zoetis Services LLC, priority 2021, published 2025)
